The results in this text go back to patent US5541168A, “Substituted 2-(phosphinyloxymethyl)-1,2,5-thiadiazolidin-3-one 1,1-dioxides and compositions and method of use thereof” (Sterling Winthrop Inc., priority 1994, dated 1996).

This experiment concerns the target T1, human leukocyte elastase (Homo sapiens, UniProt P08246).
T1 sequence (P08246 30-247 limits assumed): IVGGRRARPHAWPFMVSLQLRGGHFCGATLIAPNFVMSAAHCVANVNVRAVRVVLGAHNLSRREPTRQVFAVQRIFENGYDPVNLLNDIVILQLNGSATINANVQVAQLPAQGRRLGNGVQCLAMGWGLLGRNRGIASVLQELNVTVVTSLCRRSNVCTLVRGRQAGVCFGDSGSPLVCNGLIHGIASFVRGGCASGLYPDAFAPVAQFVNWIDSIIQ
Kind of experiment: human leukocyte elastase inhibitory activity (MeOSuc-Ala-Ala-Pro-Val-pNA substrate, absorbance progress curves). The format is biochemical. The protocol: The test compound (inhibitor) is dissolved in DMSO in a vial to produce an inhibitor stock solution which has a concentration in the range of 200-1000 μM. The inhibitor stock solution is diluted (1:4, 1:16 and 1:64) into assay vials (vials 1, 2 and 3 respectively) containing 2.4 mL of buffer solution (50 mM N-[2-hydroxyethyl]piperazine-N'-[2-ethanesulfonic acid]/NaOH, 500 mM NaCl, pH 7.8 at 25° C.) and DMSO is added so that the total volume in each vial is 3.2 mL. 70 μL, 50 μL, 35 μL and 25 μL of inhibitor from assay vial 1 is placed into the first four wells of a 96-well microtiter plate and each well is made up to 90 μL total volume with the addition of a 25% DMSO/buffer solution. The inhibitor from assay vials 2 and 3 is processed in a similar manner and placed in wells 5-12 respectively to afford a total of 12 different inhibitor concentrations. Four wells (wells 13-16) containing 90 μL of the 25% DMSO/buffer solution but no inhibitor are also run simultaneously with the inhibited wells as a control. 150 μL of substrate solution (prepared by the addition of 500 μL of the human leukocyte elastase (HLE) substrate MeOSuc-Ala-Ala-Pro-Val-pNA (18.7 mM in DMSO) to 19.5 mL of buffer solution) is then added simultaneously into each of the 16 wells and the solution in each well was thoroughly mixed.
The 96-well microtiter plate is placed into a Microplate Reader #89815A spectrophotometer and 110 μL of the enzyme solution (prepared as follows: a mixture of 20 mL of buffer solution and 20 mg of bovine serum albumen is gently vortexed in a scintillation vial and 5 μL HLE stock solution (1 mg/mL dissolved in deionized water) is added) is added simultaneously to each of the 16 wells. Each of the solutions in the wells is throughly mixed and then the time-dependent absorbance data is collected at an absorbance of 410 nm until the assay is complete. It should be noted that although this assay method can be done manually, it is preferred to perform the assay robotically using a Hewlett Packard MicroAssay System Robot.
A plot of the absorbance versus time data thus obtained affords progress curves the final slope of which is equal to the final steady-state velocities (VF). Using the program ENZFITTER (Elsevier software), the progress curves for the four control assays ([I]=0) are fit by linear regression to yield the enzyme reaction velocity values in the absences of inhibitor (Vo) which are averaged to produce a single fixed value. The inhibition constant Ki (nM) is then obtained from a plot of [formula] which affords a linear plot wherein: [formula] and [S] is the concentration of the substrate and Km is the Michaelis constant.
Table V summarizes the results obtained from the testing of representative compounds of the invention for human leukocyte elastase inhibitory activity.

Read-outs that look alike come from different tables or passages of the source.

In the case of `CCOP(=O)(OCC)OCN1C(=O)C2CCCCN2S1(=O)=O` (centres unmarked) [17(f), 2-(diethoxyphosphinyloxymethyl)-1,2,5-thiadiazolo[2,3-a]3,3a,4,5,6,7-hexahydropyridine-3-one 1,1-dioxide], the affinity corresponds to a Ki of 500 nM.
As to `CCCC1NS(=O)(=O)N(COP(=O)(OCC)OCC)C1=O` (centres unmarked) [3(f), 2-(diethoxyphosphinyloxymethyl)-4-propyl-1,2,5-thiadiazolidin-3-one 1,1-dioxide], the Ki (usually a measure of affinity in units of concentration, obtained from inhibition or displacement) is 25 nM.
`CCCC1C(=O)N(COP(=O)(OCC)OCC)S(=O)(=O)N1C` (centres unmarked) [1(i), 2-(diethoxyphosphinyloxymethyl)-4-propyl-5-methyl-1,2,5-thiadiazolidin-3-one 1,1-dioxide] registered a Ki of 2 nM.
With `CCOP(=O)(OCC)OCN1C(=O)C(C(C)C)N(C)S1(=O)=O` (centres unmarked) [2(i), 2-(diethoxyphosphinyloxymethyl)-4-isopropyl-5-methyl-1,2,5-thiadiazolidin-3-one 1,1-dioxide], the Ki worked out at 680 nM.
For the molecule `CC(C)CCC1C(=O)N(COP(=O)(OCc2ccccc2)OCc2ccccc2)S(=O)(=O)N1C` (centres unmarked) [4(j), 2-(dibenzyloxyphosphinyloxymethyl)-4-(3-methylbutyl)-5-methyl-1,2,5-thiadiazolidin-3-one 1,1-dioxide], the Ki (human leukocyte elastase, substrate MeOSuc-Ala-Ala-Pro-Val-pNA, pH 7.8, 25° C. buffer, read-out: Ki) amounted to 1.5 nM.
